Data on 4 molecules can be found in US5001058A (Bristol-Myers Company, priority 1989, dated 1991).

The conditions of data set [1]: in words, literature; cited from earlier work.
The subject of data set [2] is Moser (human colorectal carcinoma) cells. The data set is described as follows: In vitro cytotoxicity, neutral red staining. In kind it is cell-based.
For data set [3], the system named is macromolecule (DNA, RNA and protein) synthesis in L1210 murine leukemia cells. Kind of data set: Inhibitory effects on macromolecule (DNA, RNA and protein) synthesis (summary). As to conditions: in words. The class given is cell-based.
For data set [4], the system named is DNA synthesis in L1210 leukemia cells. The data set is described as follows: Inhibition of DNA synthesis in L1210 leukemia cells (labelled precursor incorporation). In kind it is cell-based, murine. As to conditions: Mus musculus, 3H-thymidine, 15 min with test material, then 60 min.
Data set [5] has as its system HCT-116 (human colon carcinoma) cells. The data set is described as follows: In vitro cytotoxicity, neutral red staining. In kind it is cell-based. Conditions: HCT-116, 72 hours, 37° C.
Another data set concerns Escherichia coli NIHJ. The data set is described as follows: microbe, parasite or virus in culture.
The subject of a further data set is anaerobic bacteria. The data set is described as follows: Antimicrobial activity, two-fold serial dilution in agar media (summary). In kind it is cell-based. Conditions: in words.
The subject of data set [6] is Cryptococcus neoformans D49. The data set is described as follows: microbe, parasite or virus in culture.
Data set [7] concerns Preopionibacterium acnes A21933. The data set is described as follows: Antimicrobial activity, two-fold serial dilution in agar media. The class given is cell-based. Conditions: Gifu anaerobic medium agar.
The test system of data set [8] is Streptococcus pyogenes A20201. The data set is described as above. As to conditions: Nutrient agar. The class given is cell-based.
Data set [9] deals with B16-F10 (murine melanoma) cells. The data set is described as follows: In vitro cytotoxicity, neutral red staining. The class given is cell-based. Conditions: Mus musculus; B16-F10, 72 hours, 37° C.
Data set [10] relates to Protein synthesis in L1210 leukemia cells. The data set is described as follows: Inhibition of protein synthesis in L1210 leukemia cells (labelled precursor incorporation). The class given is cell-based, murine. As to conditions: Mus musculus, 3H-leucine, 15 min with test material, then 60 min.
For data set [11], the system named is Staphylococcus aureus Smith. Kind of data set: Antimicrobial activity, two-fold serial dilution in agar media. As to conditions: Nutrient agar. In kind it is cell-based.
Data set [12] concerns Clostridium difficile A21675. The data set is described as follows: microbe, parasite or virus in culture. Conditions: Clostridioides difficile.
Data set [13] deals with Streptococcus faecalis A9612. Kind of data set: microbe, parasite or virus in culture. Conditions: Enterococcus faecalis.
The test system of data set [14] is Trichophyton mentagrophytes D155. The data set is described as follows: microbe, parasite or virus in culture.
Another data set relates to Proteus mirabilis A9554. The data set is described as follows: microbe, parasite or virus in culture.
Data set [15] concerns RNA synthesis in L1210 leukemia cells. The data set is described as follows: Inhibition of RNA synthesis in L1210 leukemia cells (labelled precursor incorporation). The class given is cell-based, murine. Conditions: Mus musculus, 14C-uridine, 15 min with test material, then 60 min.
For data set [16], the system named is Bacillus subtilis PCI 219. Kind of data set: Antimicrobial activity, two-fold serial dilution in agar media. The class given is cell-based. As to conditions: PCI219, Nutrient agar.
Data set [17] concerns Staphylococcus aureus A20234. The description is as above. The class given is cell-based. As to conditions: Nutrient agar.
The nature of the next data set: Solubility. In kind it is physicochemical.
In data set [18] the test system is Bacteroides fragilis A22035. The data set is described as follows: microbe, parasite or virus in culture.
The subject of a further data set is Yeast and fungi. The data set is described as follows: Antimicrobial activity, two-fold serial dilution in agar media (summary). The class given is cell-based. As to conditions: in words.
Data set [19] relates to Aspergillus fumigatus IAM 2530. Kind of data set: microbe, parasite or virus in culture. Conditions: IAM2530.
Another data set concerns gram-positive bacteria. The data set is described as follows: Antimicrobial activity, two-fold serial dilution in agar media (summary). The class given is cell-based. As to conditions: in words.
Data set [20] concerns Candida albicans IAM 4888. The data set is described as follows: microbe, parasite or virus in culture. As to conditions: IAM4888.
In data set [21] the test system is Staphylococcus epidermidis D153. Kind of data set: Antimicrobial activity, two-fold serial dilution in agar media. The class given is cell-based. Conditions: Nutrient agar.
The test system of data set [22] is Klebsiella pneumoniae D11. The data set is described as follows: microbe, parasite or virus in culture.
Data set [23] concerns murine and human tumor cells. Kind of data set: In vitro cytotoxicity against tumor cells (summary). The class given is cell-based.
Another data set concerns Proteus vulgalis A9436. Kind of data set: microbe, parasite or virus in culture.
Data set [24] concerns Staphylococcus aureus 209P. The data set is described as follows: Antimicrobial activity, two-fold serial dilution in agar media. The class given is cell-based. Conditions: Nutrient agar.
A further data set deals with gram-negative bacteria. The data set is described as follows: Antimicrobial activity, two-fold serial dilution in agar media (summary). As to conditions: in words. In kind it is cell-based.
Data set [25] deals with Pseudomonas aeruginosa A9930. Kind of data set: microbe, parasite or virus in culture.
Data set [26] has as its system Micrococcus luteus PCI 1001. The data set is described as follows: Antimicrobial activity, two-fold serial dilution in agar media. The class given is cell-based. As to conditions: PCI1001, Nutrient agar.
The test system of data set [27] is Clostridium perfringens A9635. The data set is described as follows: microbe, parasite or virus in culture.

SMILES strings stand for the structures. In brackets after ≈: the same amount, converted by molar mass. Where two headings read alike, the source gives them in different places.

With `CCC(C)c1cc(=O)c2c(CC(=O)O)cc3c(c2o1)C(=O)c1c(O)cccc1C3=O` (stereo not shown) [SS-43405D], the Antibacterial activity result in [1] is reported as “antibacterial activity”.

As for `Cc1cc2c(c3oc(C4(C5CO5)CO4)cc(=O)c13)C(=O)c1c(O)cccc1C2=O` (stereo not shown) [SF-2330], the Antibacterial activity entry in data set [1] is “antibacterial activity”.

For the molecule `CO[C@@]12[C@H](COC(N)=O)C3=C(C(=O)C(C)=C(N)C3=O)N1C[C@@H]1N[C@@H]12` [Mitomycin C, reference compound], the IC50 in [2] (72 h) came out at 1.2 µg/mL (≈ 3.59 µM). The “Inhibition of macromolecule synthesis” value in [3] is given as “specific inhibition of DNA synthesis”.

For `Cc1cc2c(c3oc(C(O)(CO)C4CO4)cc(=O)c13)C(=O)c1c(O)cccc1C2=O` (stereo not shown) [BU-3839T], the IC50 in data set [4] worked out at 0.013 µg/mL (≈ 0.0318 µM); in [5], 0.0026 µg/mL (≈ 0.00637 µM); in data set [2] (Moser, 72 hours, 37° C., read-out: IC50) it was 0.0046 µg/mL (≈ 0.0113 µM); in [9] it was 0.0009 µg/mL (≈ 0.0022 µM); in data set [10], 0.039 µg/mL (≈ 0.0955 µM); in data set [15], 0.029 µg/mL (≈ 0.071 µM). Moreover, the MIC is > 50 µg/mL with Escherichia coli NIHJ; > 50 µg/mL in data set [6]; 0.8 µg/mL (≈ 1.96 µM) in data set [7]; 0.1 µg/mL (≈ 0.245 µM) in data set [8]; 0.05 µg/mL (≈ 0.122 µM) in data set [11]; 0.4 µg/mL (≈ 0.98 µM) in data set [12]. Besides, the MIC in [13] was 0.4 µg/mL (≈ 0.98 µM); in [14], > 50 µg/mL; against Proteus mirabilis A9554, > 50 µg/mL; in data set [16], 0.05 µg/mL (≈ 0.122 µM); in data set [17] it was 0.05 µg/mL (≈ 0.122 µM); in data set [18] it was 0.1 µg/mL (≈ 0.245 µM). For the same molecule, the MIC is > 50 µg/mL in data set [19]; > 50 µg/mL in data set [20]; 0.1 µg/mL (≈ 0.245 µM) in data set [21]; 6.3 µg/mL (≈ 15.4 µM) in data set [22]; 6.3 µg/mL (≈ 15.4 µM) against Proteus vulgalis A9436; 0.05 µg/mL (≈ 0.122 µM) in data set [24]. Also, the MIC is > 50 µg/mL in [25], 0.025 µg/mL (≈ 0.0612 µM) in [26] and 0.4 µg/mL (≈ 0.98 µM) in data set [27]. Moreover, the “Body weight change on day 4” value in the data set on P388 leukemia (0.008 mg/kg/day, QD × 3, ip) is reported as “+1.0 g”. Also, the “MST (median survival time)” value in the data set with P388 leukemia (0.008 mg/kg/day, QD × 3, ip) amounted to 11.0 days; in the data set with P388 leukemia (0.5 mg/kg/day, QD × 3, ip) it was 14.5 days; in the data set on P388 leukemia (1 mg/kg/day, QD × 3, ip), 7.0 days. Moreover, the T/C in the data set on P388 leukemia (0.008 mg/kg/day, QD × 3, ip, T/C ≥ […] significant) was determined as 110%. Also, the “maximum T/C value” in the data set with P388 leukemia (P388 leukemia, ip, QD×3) is given as 145%. In addition, the “Chemotherapeutic activity against P388 leukemia” value with P388 leukemia (in words) was “relatively broad and moderate chemotherapeutic activity”. Also, the “Activity against anaerobic bacteria” value in the data set on anaerobic bacteria is recorded as “relatively weak activity”. Moreover, the Solubility result in “Solubility” (N,N-dimethylformamide) is on record as “soluble”; in the data set “Solubility” (alkaline water), “slightly soluble”; in the data set “Solubility” (chloroform), “slightly soluble”; in the data set “Solubility” (dimethyl sulfoxide), “soluble”; in “Solubility” (methylene chloride), “slightly soluble”; in “Solubility” (other organic solvents), “almost insoluble”. Besides, the Solubility result in “Solubility” (water) is listed as “almost insoluble”. Moreover, in the data set with Yeast and fungi, the “Susceptibility of yeast and fungi” value is “not susceptible”. The “Inhibitory activity against gram-positive bacteria” value with gram-positive bacteria is listed as “remarkable inhibitory activity”. For the same molecule, in [3], the “Inhibition of macromolecule synthesis” value is “inhibited DNA, RNA and protein synthesis non-specifically”. For the same molecule, the “Cytotoxicity superior to mitomycin C in terms of IC50 value” in [23] (approximately, ratio to mitomycin C) was 300-600 times. In data set [23] (in words), the “Cytotoxicity against tumor cells” value was “quite potent”. The “Activity against gram-negative bacteria” value in the data set on gram-negative bacteria is “relatively weak activity”.

The term IC50 denotes the concentration that gives 50% inhibition. Broadly, the T/C is the ratio of treated to control.
